{"source": "patent US20150018369A1", "about": "(priority 2012, published 2015)", "key": {"[1]": {"test_system": "mouse microglia in primary culture", "test": "Microglia cell migration", "type": "cell-based"}, "[2]": {"test_system": "AI receptors (mouse microglia in primary culture)", "test": "[3H]-WIN55212 binding in mouse microglia"}, "[3]": {"test_system": "T98 g cells", "test": "Signaling pathway and cell death in T98 g cells", "type": "cell-based, human", "description": "To determine the signaling pathway activated by AI receptors, T98 g cells were treated and changes in select kinase and mediatior of cell death were measured."}, "[4]": {"test_system": "mouse microglia in primary culture", "test": "cAMP production in mouse microglia", "type": "cell-based"}, "[5]": {"test_system": "AI receptors", "test": "GTPγS binding in HEK293 cell homogenates", "type": "biochemical, human", "source_text": "(§1) When comparing the overall amino acid sequence of GPR124 to that of CB1 and CB2 receptors no significant homology was found. However, when focusing the comparison to the amino acid sequence encoding for the third transmembrane domains of GPR124 and CB2 receptors, 84% homology was found (FIG. 5a). […] Therefore, it is likely that ST-1, ST-11, and other AI compounds interact directly with the third transmembrane domain of GPR124. To determine the signaling mechanism of AI receptors, effect of ST-11 in HEX293 cells, which express GPR124 endogenously and commonly used to study GPCR pharmacology and signaling pathway, was tested."}, "[6]": {"test_system": "mouse microglia in primary culture", "test": "NO production in mouse microglia", "type": "cell-based"}, "[7]": {"molecular_target": "T1, GPR124 (Homo sapiens, UniProt Q96PE1)", "T1 construct": "endogenous in cells; host or cells: T98g human astrocytoma cells", "T1 sequence (Q96PE1 34-1338)": "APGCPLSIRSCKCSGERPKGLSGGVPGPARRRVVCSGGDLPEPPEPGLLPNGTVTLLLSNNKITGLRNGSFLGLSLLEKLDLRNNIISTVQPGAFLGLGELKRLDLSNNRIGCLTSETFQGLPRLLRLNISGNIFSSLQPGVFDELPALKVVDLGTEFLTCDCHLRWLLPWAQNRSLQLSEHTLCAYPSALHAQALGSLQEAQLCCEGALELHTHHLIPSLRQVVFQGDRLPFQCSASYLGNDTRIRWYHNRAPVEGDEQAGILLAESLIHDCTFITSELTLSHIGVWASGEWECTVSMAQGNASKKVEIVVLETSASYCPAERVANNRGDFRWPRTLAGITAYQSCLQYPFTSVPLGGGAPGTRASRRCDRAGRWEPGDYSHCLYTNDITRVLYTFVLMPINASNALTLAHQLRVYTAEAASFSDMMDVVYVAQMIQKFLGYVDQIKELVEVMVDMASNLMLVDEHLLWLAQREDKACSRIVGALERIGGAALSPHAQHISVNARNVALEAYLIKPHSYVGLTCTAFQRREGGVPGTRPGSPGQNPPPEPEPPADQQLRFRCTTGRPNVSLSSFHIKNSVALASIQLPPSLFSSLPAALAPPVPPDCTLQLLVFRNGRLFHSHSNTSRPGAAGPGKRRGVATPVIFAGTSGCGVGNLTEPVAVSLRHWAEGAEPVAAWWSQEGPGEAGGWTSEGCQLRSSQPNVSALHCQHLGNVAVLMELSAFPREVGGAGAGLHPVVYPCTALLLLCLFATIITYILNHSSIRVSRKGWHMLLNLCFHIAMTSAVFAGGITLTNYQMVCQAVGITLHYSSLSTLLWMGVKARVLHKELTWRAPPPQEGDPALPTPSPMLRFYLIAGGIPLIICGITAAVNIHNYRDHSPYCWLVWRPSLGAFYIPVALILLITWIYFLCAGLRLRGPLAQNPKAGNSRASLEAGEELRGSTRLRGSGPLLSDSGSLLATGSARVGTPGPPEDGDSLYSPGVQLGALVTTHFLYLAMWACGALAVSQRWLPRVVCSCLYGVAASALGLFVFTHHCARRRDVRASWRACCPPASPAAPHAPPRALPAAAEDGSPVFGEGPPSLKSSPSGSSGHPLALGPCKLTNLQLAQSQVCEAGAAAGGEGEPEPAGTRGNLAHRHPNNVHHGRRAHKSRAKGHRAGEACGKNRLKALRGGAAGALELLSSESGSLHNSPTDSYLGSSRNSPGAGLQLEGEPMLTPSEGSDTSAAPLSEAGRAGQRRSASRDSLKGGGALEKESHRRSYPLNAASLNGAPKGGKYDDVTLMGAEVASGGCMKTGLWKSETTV", "test": "ST-11 toxicity in T98 g cells after siRNA knock-down of GPR124", "type": "cell-based", "details": "ST-11 1 μM, siRNA targeting GPR124, viability after three days", "description": "To determine which of the gene candidate encodes for AI receptors, an siRNA approach is used to knock down each candidate individually to determine which one prevents the toxic effect of ST-11 and thus encodes for AI receptors. The prediction is that knocking down AI receptors prevents the cell death induced by ST-11. T98 g cells were treated with siRNA targeting each of the 39 GPCR gene candidates individually. The first experiment was designed to knock down each GPCR candidate liming a mixture of 3 siRNAs, and thus maximize genetic targeting efficacy. Thus, cells were incubated with siRNA mixtures and then treated with ST-11 (1 μM) and cell viability measured after three days. Only one mixture of siRNAs (that targeting GPR124) decreased the toxicity of ST-11. […] Two of the three siRNAs knocked-down GPR124 expression by more than 80% over 4 days (FIG. 5b). […] The killing effect induced by ST-11 is mediated by GPR124, an AI receptor."}, "[8]": {"test_system": "AI receptors", "test": "cAMP production in HEK293 cells", "type": "cell-based, human", "source_text": "as §1"}, "[9]": {"test": "Accelerating rotarod, acute toxicity in healthy mice", "type": "in vivo, mouse", "description": "As an initial step to test the therapeutic efficacy of ST-11 in vivo, the pharmacokinetic profile and acme toxicity profile of ST-11 in healthy mice were determined. FIG. 13 illustrates an LC-MS chromatogram and calibration curve of ST-11 (a & 13). PK profile of ST-11 (c, d, e & f)."}}}
{"smiles": "CCn1c(C)c(C(=O)c2ccc(C)c3ccccc23)c2ccccc21", "note": "[ST-11]", "values": [{"measurement": "microglia cell migration stimulated by ATP", "setting": "[1]", "value": "inhibits"}, {"measurement": "competition for [3H]-WIN55212 binding", "setting": "[2]", "value": "competed"}, {"measurement": "cell death (cell number, nuclear fragmentation, cell blebbing)", "setting": "[3]; after 48 hrs", "value": "followed by cell death"}, {"measurement": "PARP cleavage", "setting": "[3]; within hours", "value": "cleaves PARP"}, {"measurement": "activation of PLK-1", "setting": "[3]; within hours", "value": "induces the activation of PLK-1"}, {"measurement": "caspase 3 activation", "setting": "[3]; within hours", "value": "caspase 3 activation"}, {"measurement": "cAMP production stimulated by Isoproterenol", "setting": "[4]", "value": "inhibits cAMP production"}, {"measurement": "GTPγS binding", "setting": "[5]", "value": "activation of GTP[…]S binding"}, {"measurement": "NO production", "setting": "[6]", "value": "does not stimulate or inhibit"}, {"measurement": "ST-11-induced killing of T98 g cells when GPR124 mRNA expression is reduced", "setting": "[7]", "value": "reduced"}, {"measurement": "cAMP production", "setting": "[8]", "value": "inhibition of cAMP production"}, {"measurement": "locomotor activity on an accelerating rotarod", "setting": "[9]", "value": "does not influence locomotor activity"}]}
